According to patent EP4653431A1, “PYRAZOLE DERIVATIVE, AND PHARMACEUTICALLY ACCEPTABLE SALT, STEREOISOMER, PHARMACEUTICAL COMPOSITION AND USE THEREOF” (Starg (Wuhan) Pharmaceutical Technology Co., Ltd, priority 2023, dated 2024):
Where a name gives a salt, the structure may show the parent alone. Read-outs that look alike come from different tables or passages of the source.

Columns and labels:
CDK1/cyclin B1 = target: T1, CDK1/cyclin B1 (Homo sapiens, UniProt P06493); assay: In vitro CDK1/cyclin B1 enzyme activity assay (TR-FRET); type: biochemical
T1 construct: purchased Carna Biosciences
Description: CDK1/cyclin B1 was purchased from Carna Biosciences. Ulight-4E-BP1 peptide, Eu-anti-phospho-tyrosine antibody, and 1X detection buffer were purchased from PerkinElmer. High-purity ATP was purchased from Promega. EDTA was purchased from Sigma. Nivo multimode plate reader (PerkinElmer) was used.
Preparation of Kinase Buffer Solution: The kinase buffer solution consisted 50 mM HEPES, 1 mM EDTA, 10 mM MgCl2, and 0.01% Brij-35, with pH of 7.4.
The stop solution was prepared by mixing 100 µL of 1 M EDTA stock solution with […] of 1X detection buffer solution and 1725 µL of distilled water.
The enzyme, Ulight-4E-BP1 peptide, ATP, and the inhibitor were diluted using the kinase buffer solution.
The Eu-anti-phospho-tyrosine antibody was diluted to a concentration of 8 nM/L using the detection buffer solution.
The final concentration of DMSO was 4%, and the experiment was set up with duplicate wells. […] The reaction system was incubated at 25 °C for 60 minutes. After the reaction, 5 µL of the stop solution was added to each well, and further reacted at 25 °C for 5 minutes to terminate the reaction. Then 5 µL of Eu-anti-phospho-tyrosine antibody dilution was added to each well, and the mixture was incubated at 25 °C for 60 minutes.
The IC50 value was obtained by fitting the data to a four-parameter curve (using log(inhibitor) vs. response -- Variable slope model in GraphPad Prism).

[1] = Pharmacokinetic study, oral and intravenous administration in mice; set-up: species or system ICR mice; conditions: male, ICR, mouse, in vivo
Description: This study used ICR male mice as test animals. The plasma concentrations of the test compounds and the reference compound in mice were quantitatively determined at different time points using the LC-MS/MS method following intravenous injection or oral administration to evaluate the pharmacokinetic characteristics of the test compounds in mice.
ICR mice (male, 20-30 g, 6-8 weeks old, Beijing Charles River).
A clear solution of the test compound was administered to ICR mice (fasted overnight or fed) via tail vein injection or oral gavage. For intravenous injection, blood samples (50 µL) were collected via cheek puncture at 0 h (pre-dose) and at 0.083, 0.25, 0.5, 1, 2, 4, 6, 8, and 24 h post-dose into anticoagulant tubes containing sodium heparin. The mixtures were thoroughly vortexed at 4 °C and centrifuged at 6000 rpm for 3 minutes. For oral gavage, blood samples were collected via cheek puncture at 0 h (pre-dose) and at 0.083, 0.25, 1, 2, 4, 6, 8, and 24 h post-dose into anticoagulant tubes containing sodium heparin. The mixtures were vortexed thoroughly, and centrifuged at 6000 rpm for 3 minutes. Plasma drug concentrations were determined using the LC-MS/MS method. Pharmacokinetic parameters were calculated using Phoenix WinNonlin 8.2.0 pharmacokinetic software with a non-compartmental model and linear-logarithmic trapezoidal rule.

[2] = system: Human Ovarian Cancer OVCAR-3 Cell Subcutaneous Xenograft Tumor; assay: In vivo pharmacodynamic (efficacy) study in OVCAR-3 subcutaneous xenograft tumor model; conditions: oral, BID*21 days, OVCAR-3 xenograft in CB17-SCID mice
Description: Cell Culture: OVCAR-3 cells (human ovarian cancer cell line, sourced from Medsyin's cell bank) were cultured in RPMI-1640 medium (ATCC modified, Gibco) supplemented with 20% FBS (Gibco) and 1% penicillin/streptomycin (P.S.), in vitro at 37 °C with 5% CO2. The cells were passaged twice weekly. OVCAR-3 cells in the exponential growth phase were collected and resuspended in a mixture of PBS and Matrigel (Corning) to prepare a cell suspension with a concentration of 5×10^7 cells/mL for mouse inoculation. The volume ratio of PBS to Matrigel was 1:1.
Animals: CB17-SCID mice, female, 6-8 weeks old, weighing 18-21 grams. A total of 40 mice were inoculated. The mice were provided by Shanghai Lingchang Biotechnology Co., Ltd.
Tumor Inoculation: Each mouse was subcutaneously injected in the right flank with 0.2 mL of OVCAR-3 tumor cells (10×10^6 cells).
Experimental Metrics: The experimental metrics aimed to evaluate whether tumor growth was inhibited, delayed, or cured. The tumor diameter was measured twice weekly using a vernier caliper. The tumor volume was calculated using the formula: V=0.5a×b^2, where a and b represent the longest and shortest diameters of the tumor, respectively.
Antitumor metric TGI (%) reflects the tumor growth inhibition rate. TGI (%) was calculated as follows: TGI (%) = [(1 - (average tumor volume at the end of drug administration in a given group - average tumor volume at the start of drug administration in that group)) / (average tumor volume at the end of treatment in a vehicle control group - average tumor volume at the start of treatment in the vehicle control group)] × 100%.

[3] = CDK1/cyclin B1, 1 mM ATP, 60 min at 25 °C, Table 1, read-out: CDK1 IC50
[4] = exact values stated in the text below Table 1, read-out: IC50 against CDK1

T1 sequence (P06493 whole entry): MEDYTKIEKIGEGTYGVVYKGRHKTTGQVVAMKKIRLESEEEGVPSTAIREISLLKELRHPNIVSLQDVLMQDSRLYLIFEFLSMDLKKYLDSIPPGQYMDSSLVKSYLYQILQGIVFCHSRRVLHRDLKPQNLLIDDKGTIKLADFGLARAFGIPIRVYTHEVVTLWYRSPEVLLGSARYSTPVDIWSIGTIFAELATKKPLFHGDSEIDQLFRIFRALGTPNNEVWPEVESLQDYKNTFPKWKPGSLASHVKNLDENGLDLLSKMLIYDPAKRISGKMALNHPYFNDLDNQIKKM
T1 sequence (P14635 whole entry partner): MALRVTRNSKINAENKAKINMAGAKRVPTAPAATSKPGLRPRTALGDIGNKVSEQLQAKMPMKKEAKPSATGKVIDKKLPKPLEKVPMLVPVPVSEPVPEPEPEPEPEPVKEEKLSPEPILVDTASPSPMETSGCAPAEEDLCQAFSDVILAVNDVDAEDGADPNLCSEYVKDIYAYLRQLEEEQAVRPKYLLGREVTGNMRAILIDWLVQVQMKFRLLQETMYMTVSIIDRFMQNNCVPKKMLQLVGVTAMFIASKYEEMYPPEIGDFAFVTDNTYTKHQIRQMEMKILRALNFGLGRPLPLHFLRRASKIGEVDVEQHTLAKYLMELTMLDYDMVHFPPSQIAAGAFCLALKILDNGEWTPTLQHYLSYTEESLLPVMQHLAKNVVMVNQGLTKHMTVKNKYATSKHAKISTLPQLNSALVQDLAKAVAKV

Compound | IC50 (CDK1/cyclin B1; [3]) | IC50 (CDK1/cyclin B1; [4]) | bioavailability [1] | AUC(0-t) ([1]; iv, 5 mg/kg) | Vd ([1]; iv, 5 mg/kg) | clearance ([1]; iv, 5 mg/kg) | half-life ([1]; iv, 5 mg/kg) | AUC(0-t) ([1]; po, 30 mg/kg) | Cmax ([1]; po, 30 mg/kg) | Tmax ([1]; po, 30 mg/kg) | TGI ([2]; 35 mg/Kg) | TGI ([2]; 70 mg/Kg) | TGI ([2]; 140 mg/Kg)
CONCc1nn2ccnc(Nc3cc([C@H]4CC[C@@H](OC(=O)NC(C)C)C4)[nH]n3)c2c1F [Compound 5] | > 1000 nM | 1500 nM | 129% | 6770 ng·h/mL | 7.58 L/kg | 13 mL/min/kg | 6.48 h | 52600 ng·h/mL | 22100 ng/mL | 0.19 h |  |  | 
CON(C)Cc1nn2ccnc(Nc3cc([C@H]4CC[C@@H](OC(=O)NC(C)C)C4)[nH]n3)c2c1F [Compound 6] | > 1000 nM | 3490 nM | 196% | 13200 ng·h/mL | 0.52 L/kg | 6.35 mL/min/kg | 0.93 h | 155000 ng·h/mL | 41100 ng/mL | 1.08 h |  |  | 
CON(C)Cc1nn2ccnc(Nc3cc([C@H]4CC[C@@H](OC(=O)NC(C)C)C4)[nH]n3)c2c1C [Formate salt of compound 2] | > 1000 nM | 4080 nM |  |  |  |  |  |  |  |  | 104.1% | 114.1% | 114.6%
